From article PMC10343660, “Mechanochemical Studies on Coupling of Hydrazines and Hydrazine Amides with Phenolic and Furanyl Aldehydes—Hydrazones with Antileishmanial and Antibacterial Activities” (Molecules, 2023)
In brackets after ≈: the same amount, converted by molar mass. Where two headings read alike, the source gives them in different places. Marks after values point to notes of the source that are not given here.

Key:
[1] = system: L. donovani axenic amastigotes (LV9); experiment: In vitro antileishmanial evaluation on L. donovani axenic amastigotes (SYBR Green); type: cell-based, Leishmania donovani; details: read-out: L. donovani Axenic Amastigote IC50 ± SD
Experimental: L. donovani (MHOM/ET/67/HU3, also called LV9) promastigotes and axenic amastigotes were maintained according to the protocols previously described.
In vitro antileishmanial evaluation on L. donovani axenic amastigotes. This evaluation was performed using the SYBR Green method as previously described. IC50 values were calculated using the ICEstimator version 1.2 software (http://www.antimalarial-icestimator.net/runregression1.2.htm, accessed on 5 April 2023). Miltefosine was used as the reference drug.

S. aureus ATCC25923 = experiment: MIC determination on S. aureus ATCC25923 (microdilution, resazurin); type: cell-based, Staphylococcus aureus
[2] = system: L. donovani intramacrophage amastigotes; experiment: In vitro antileishmanial evaluation on intramacrophage amastigotes (RAW 264.7 infected, SYBR Green); type: cell-based, Leishmania donovani; details: for IC50: read-out: L. donovani Intramacrophage Amastigote IC50 ± SD; for SI (Selectivity Index): CC50 (macrophage RAW 264.7)/IC50 (intramacrophage form of L. donovani)
Experimental: In vitro antileishmanial evaluation on intramacrophage amastigotes. RAW 264.7 macrophages were infected with L. donovani axenic amastigotes according to a ratio of 10 parasites per macrophage. […] The in vitro treatment was applied 24 h post-infection, and the treatment duration was 48 h. […] The activity of the compounds is expressed as IC50, calculated using the ICEstimator version 1.2 software. Miltefosine was used as the reference drug.

E. coli ATCC25922 = experiment: MIC determination on E. coli ATCC25922 (microdilution, resazurin); type: cell-based, Escherichia coli
[3] = system: Mycobacterium tuberculosis H37Rv; experiment: MIC determination for Mycobacterium tuberculosis H37Rv (REMA); type: cell-based; details: for MIC: read-out: M. tuberculosis H37Rv MIC; for MIC90: read-out: minimum inhibitory concentration (MIC90) on M. tuberculosis H37Rv
S. aureus ATCC29213 = experiment: MIC determination on S. aureus ATCC29213; type: cell-based, Staphylococcus aureus; details: value in parentheses
[4] = Leishmania donovani, LV9 axenic amastigote forms
[5] = Staphylococcus aureus, ATCC25923, 24 h, value outside parentheses, read-out: S. aureus ATCC25923 MIC
[6] = Leishmania donovani, RAW264.7, RAW 264.7 macrophages infected, treatment 48 h
[7] = Escherichia coli, ATCC25922, 24 h, value outside parentheses, read-out: E. coli ATCC25922 MIC
[8] = Mycobacterium tuberculosis, H37RV, 168 h, REMA, 7 days
[9] = Staphylococcus aureus, ATCC25923, value outside parentheses, read-out: S. aureus ATCC25923 MIC
[10] = Escherichia coli, ATCC25922, value outside parentheses, read-out: E. coli ATCC25922 MIC
[11] = Staphylococcus aureus, ATCC29213
[12] = value outside parentheses, read-out: S. aureus ATCC25923 MIC
[13] = value outside parentheses, read-out: E. coli ATCC25922 MIC
[14] = Mycobacterium tuberculosis, H37RV, range for the active compounds

SMILES | IC50 [1, 4] [µM] | IC50 [2, 6] [µM] | melting point [°C] | MIC [3, 8] [µM] | MIC (S. aureus ATCC25923; [9]) [µM] | SI (Selectivity Index) [2] | MIC (E. coli ATCC25922; [10]) [µM] | further results
O=[N+]([O-])c1ccc(-c2ccc(/C=N/Nc3nc4ccc(Cl)cc4o3)o2)cc1 [Compound 16, 6-chloro-2-[(2E)-2-{[5-(4-nitrophenyl)furan-2-yl]methylidene}hydrazin-1-yl]-1,3-benzoxazole] | > 100 | > 100 | 190.9 | > 100 | – | – | – | MIC (S. aureus ATCC25923; [5]): > 828 µM; MIC (E. coli ATCC25922; [7]): > 828 µM
COc1cc(/C=N/NC(=O)c2ccc(O)cc2)ccc1O [Compound 2, 4-hydroxy-N′-[(E)-(4-hydroxy-3-methoxyphenyl)methylidene]benzohydrazide] | 2.1 ± 0.1 | 5.9 ± 0.9 | – | > 100 | > 894 | >17 | > 894 | –
CCCCCCCCCCCCCCCCOP(=O)([O-])OCC[N+](C)(C)C [Miltefosine, reference compound] | 1.5 ± 0.3 | 2.2 ± 0.3 | – | – | – | 9 ^a | – | –
O=C(O)c1cn(C2CC2)c2cc(N3CCNCC3)c(F)cc2c1=O [Ciprofloxacin, reference compound] | – | – | – | – | 3 (≈ 0.994 µg/mL) | – | 0.75 (≈ 0.249 µg/mL) | MIC (S. aureus ATCC29213; [11]): 5 µM (≈ 1.66 µg/mL)
O=[N+]([O-])c1ccc(-c2ccc(/C=N/Nc3nncc4ccccc34)o2)cc1 [Compound 9, 1-[(2E)-2-{[5-(4-Nitrophenyl)-2-furyl]methylene}hydrazino]phthalazine] | 0.2 ± 0.1 | 0.3 ± 0.1 | 239.5 to 241.5 | > 100 | > 711 | >333 | > 711 | –
O=C(N/N=C/C=C/c1ccc([N+](=O)[O-])o1)c1ccncc1 [Compound 3, N′-[(1E,2E)-3-(5-Nitro-2-furyl)-2-propen-1-ylidene]isonicotinohydrazide] | 0.6 ± 0.1 | 0.5 ± 0.1 | 252.1 to 254 | 1 (≈ 0.286 µg/mL) | 1.75 (≈ 0.501 µg/mL) | >200 | 28 (≈ 8.01 µg/mL) | MIC (S. aureus ATCC25923; [12]): 1.75 µM (≈ 0.501 µg/mL); MIC (E. coli ATCC25922; [13]): 28 µM (≈ 8.01 µg/mL); MIC90 [3, 14]: 0.6 to 7.4 µM (≈ 0.172 to 2.12 µg/mL); MIC (S. aureus ATCC29213; [11]): 7 µM (≈ 2 µg/mL); MIC (S. aureus ATCC29213): 7 µM (≈ 2 µg/mL)
O=[N+]([O-])c1ccc(-c2ccc(/C=N/Nc3nc4ccccc4s3)o2)cc1 [Compound 10, 2-[(2E)-2-{[5-(4-Nitrophenyl)-2-furyl]methylene}hydrazino]-1,3-benzothiazole] | 0.7 ± 0.1 | 5.8 ± 1 | 271.9 | > 100 | > 703 | – | > 703 | –
O=C1CSC(=S)N1/N=C/c1ccc(-c2ccc([N+](=O)[O-])cc2)o1 [Compound 11, 3-[(E)-{[5-(4-Nitrophenyl)-2-furyl]methylene}amino]-2-thioxo-1,3-thiazolidin-4-one] | 5.2 ± 0.3 | > 100 | 175 | > 100 | > 737 | – | > 737 | –
O=C(N/N=C/c1ccc(-c2ccc([N+](=O)[O-])cc2)o1)OCc1ccccc1 [Compound 17, N′-[(E)-[5-(4-nitrophenyl)furan-2-yl]methylidene](benzyloxy)carbohydrazide] | – | – | – | – | – | – | – | IC50 ([1]; LV9 axenic amastigote forms): 12.2 ± 1.6 µM; MIC (S. aureus ATCC25923; [12]): >701 µM; IC50 ([2]; RAW 264.7 macrophages infected, treatment 48 h): 32.4 ± 2.8 µM; MIC (E. coli ATCC25922; [13]): >701 µM; MIC ([3]; REMA, 7 days): >100 µM
COc1cc(/C=N/NC(=O)c2ccncc2)ccc1O [Compound 1, N′-[(E)-(4-Hydroxy-3-methoxyphenyl)methylene]isonicotinohydrazide] | 24.9 ± 2.9 | 40.2 ± 3.1 | – | 0.6 (≈ 0.163 µg/mL) | > 944 | >2.5 | > 944 | MIC90 [3, 14]: 0.6 to 7.4 µM (≈ 0.163 to 2.01 µg/mL)
O=C1CSC(=S)N1/N=C/C=C/c1ccc([N+](=O)[O-])o1 [Compound 6, 3-{(E)-[(2E)-3-(5-Nitro-2-furyl)-2-propen-1-ylidene]amino}-2-thioxo-1,3-thiazolidin-4-one] | 0.7 ± 0.1 | 0.8 ± 0.1 | – | 4.2 (≈ 1.25 µg/mL) | 13 (≈ 3.87 µg/mL) | >125 | > 861 | MIC (S. aureus ATCC25923; [12]): 13 µM (≈ 3.87 µg/mL); MIC90 [3, 14]: 0.6 to 7.4 µM (≈ 0.178 to 2.2 µg/mL); MIC (S. aureus ATCC29213; [11]): 7 µM (≈ 2.08 µg/mL); MIC (S. aureus ATCC29213): 7 µM (≈ 2.08 µg/mL)
O=[N+]([O-])c1ccc(-c2ccc(/C=N/Nc3cnccn3)o2)cc1 [Compound 15, 2-[(2E)-2-{[5-(4-nitrophenyl)furan-2-yl]methylidene}hydrazin-1-yl]pyrazine] | 9.9 ± 0.8 | 23.3 ± 3.1 | 272.2 to 274 | > 100 | – | >4 | – | MIC (S. aureus ATCC25923; [5]): > 678 µM; MIC (E. coli ATCC25922; [7]): > 678 µM
O=[N+]([O-])c1ccc(-c2ccc(/C=N/Nc3ccc(Br)cn3)o2)cc1 [Compound 13, 5-Bromo-2-[(2E)-2-{[5-(4-nitrophenyl)furan-2-yl]methylidene}hydrazin-1-yl]pyridine] | 54.3 ± 4.5 | > 100 | – | > 100 | > 661 | – | > 661 | –
O=[N+]([O-])c1ccc(/C=C/C=N/NN2Cc3ccccc3C=N2)o1 [Compound 4, 2-{(2E)-2-[(2E)-3-(5-Nitro-2-furyl)-2-propen-1-ylidene]hydrazino}phthalazine] | 1.9 ± 0.3 | 0.6 ± 0.1 | – | 129 (≈ 40.2 µg/mL) | > 828 | >166 | > 828 | –
O=C(N/N=C/c1ccc(-c2ccc([N+](=O)[O-])cc2)o1)c1ccncc1 [Compound 8, N′-{(E)-[5-(4-Nitrophenyl)-2-furyl]methylene}isonicotinohydrazide] | – | – | – | – | – | >2 | – | IC50 ([1]; Leishmania donovani): 16.2 ± 1.2 µM; MIC (S. aureus ATCC25923; Staphylococcus aureus, ATCC25923, read-out: S. aureus ATCC25923 MIC): > 761 µM; IC50 ([2]; Leishmania donovani, RAW264.7, 48 h): 36.2 ± 1.4 µM; MIC (E. coli ATCC25922; Escherichia coli, ATCC25922, read-out: E. coli ATCC25922 MIC): > 761 µM; MIC ([3]; Mycobacterium tuberculosis, H37RV, 168 h): 0.9 µM (≈ 0.303 µg/mL); MIC90 ([3]; Mycobacterium tuberculosis, H37RV): 0.6 to 7.4 µM (≈ 0.202 to 2.49 µg/mL)
[H]/N=C(/N)N[C@H]1[C@H](O)[C@@H](O)[C@H](O[C@@H]2O[C@@H](C)[C@](O)(C=O)[C@H]2O[C@@H]2O[C@@H](CO)[C@H](O)[C@@H](O)[C@@H]2NC)[C@@H](N/C(N)=N\[H])[C@@H]1O [Streptomycin, reference compound] | – | – | – | 0.4 (≈ 0.233 µg/mL) | – | – | – | –
NNC(=O)c1ccncc1 [Isoniazid, reference compound] | – | – | – | 0.4 (≈ 0.0549 µg/mL) | – | – | – | –
O=[N+]([O-])c1ccc(-c2ccc(/C=N/Nc3nccc(C(F)(F)F)n3)o2)cc1 [Compound 14, 2-[(2E)-2-{[5-(4-Nitrophenyl)furan-2-yl]methylidene}hydrazin-1-yl]-4-(trifluoromethyl) pyrimidine] | 2.9 ± 0.2 | 11.9 ± 1.1 | 212.4 to 214.2 | > 100 | – | >8 | – | MIC (S. aureus ATCC25923; [5]): > 669 µM; MIC (E. coli ATCC25922; [7]): > 669 µM
O=[N+]([O-])c1ccc(/C=C/C=N/Nc2nc3ccccc3s2)o1 [Compound 5, 2-{(2E)-2-[(2E)-3-(5-Nitro-2-furyl)-2-propen-1-ylidene]hydrazino}-1,3-benzothiazole] | 2.3 ± 0.3 | 12.4 ± 1.2 | 243.1 | 1 (≈ 0.314 µg/mL) | > 814 | >8 | > 814 | MIC90 [3, 14]: 0.6 to 7.4 µM (≈ 0.189 to 2.33 µg/mL)
